Data: ChEMBL document CHEMBL1147026, “Synthesis of pseudopeptides based L-tryptophan as a potential antimicrobial agent” (Bioorg Med Chem Lett, 2007)
Converted amounts (≈) assume the structure as drawn.

Columns and labels:
Candida albicans [1] = assay: Antifungal activity against Candida albicans CMAH 0527 after 48 to 72 hrs by broth microdilution method; format: functional
Candida albicans [2] = assay: Antifungal activity against Candida albicans CMAH 0511 after 48 to 72 hrs by broth microdilution method; format: functional
Staphylococcus aureus [3] = assay: Antibacterial activity against methicillin-resistant Staphylococcus aureus CMAH 0430 after 24 hrs by two fold dilution method; format: functional
Staphylococcus aureus [4] = assay: Antibacterial activity against methicillin-resistant Staphylococcus aureus CMAH 0504 after 24 hrs by two fold dilution method; format: functional
Rhodotorula glutinis = assay: Antimicrobial activity against Rhodotorula glutinis SYM 2209 after 48 to 72 hrs by broth microdilution method; format: functional
Cryptococcus neoformans = assay: Antifungal activity against Cryptococcus neoformans ATCC 90112 after 48 to 72 hrs by broth microdilution method; format: functional
Escherichia coli = assay: Antimicrobial activity against Escherichia coli ATCC 25922 after 24 hrs by two fold dilution method; format: functional; settings: ATCC 25922, 24 h
Candida albicans [5] = assay: Antifungal activity against fluconazole-resistant Candida albicans CMAH 0520 after 48 to 72 hrs by broth microdilution method; format: functional
Micrococcus luteus = assay: Antimicrobial activity against Micrococcus luteus CMCC(B) 28001 after 24 hrs by two fold dilution method; format: functional
Candida albicans [6] = assay: Antifungal activity against Candida albicans CMAM 0592 after 48 to 72 hrs by broth microdilution method; format: functional
[7] = Toxicity in human erythrocytes assessed as haemolysis upto 30 ug/mL; format: cell-based, Erythrocyte; settings: read-out: Activity
Pseudomonas aeruginosa = assay: Antimicrobial activity against Pseudomonas aeruginosa ATCC 27853 after 24 hrs by two fold dilution method; format: functional; settings: ATCC 27853, 24 h
Candida albicans [8] = assay: Antifungal activity against Candida albicans CMAM 0594 after 48 to 72 hrs by broth microdilution method; format: functional
Staphylococcus aureus [9] = assay: Antibacterial activity against methicillin-resistant Staphylococcus aureus CMAH 0515 after 24 hrs by two fold dilution method; format: functional
Staphylococcus aureus [10] = assay: Antibacterial activity against methicillin-susceptible Staphylococcus aureus ATCC 25923 after 24 hrs by two fold dilution method; format: functional; settings: ATCC 25923, 24 h
Proteus vulgaris = assay: Antimicrobial activity against Proteus vulgaris CMCC(B) 49001 after 24 hrs by two fold dilution method; format: functional
Aspergillus sp. = assay: Antifungal activity against Aspergillus sp. after 48 to 72 hrs by broth microdilution method; format: functional
Candida albicans [11] = assay: Antifungal activity against fluconazole-resistant Candida albicans CMAM 0597 after 48 to 72 hrs by broth microdilution method; format: functional
[12] = Toxicity in human erythrocytes assessed as haemolysis upto 4000 ug/mL; format: cell-based, Erythrocyte; settings: read-out: Activity
Klebsiella aerogenes = assay: Antibacterial activity against Enterobacter aerogenes CMCC(B) 45103 after 24 hrs by two fold dilution method; format: functional
Candida albicans [13] = assay: Antifungal activity against Candida albicans CMAH 0501 after 48 to 72 hrs by broth microdilution method; format: functional
Candida albicans [14] = assay: Antifungal activity against Candida albicans CMAH 0572 after 48 to 72 hrs by broth microdilution method; format: functional
Candida albicans [15] = assay: Antifungal activity against Candida albicans CMAM 0577 after 48 to 72 hrs by broth microdilution method; format: functional
Candida albicans [16] = assay: Antifungal activity against Candida albicans CMAH 0503 after 48 to 72 hrs by broth microdilution method; format: functional
Bacillus subtilis = assay: Antimicrobial activity against Bacillus subtilis after 24 hrs by two fold dilution method; format: functional
Candida albicans [17] = assay: Antifungal activity against Candida albicans CMAH 0507 after 48 to 72 hrs by broth microdilution method; format: functional
Saccharomyces cerevisiae = assay: Antimicrobial activity against Saccharomyces cerevisiae after 48 to 72 hrs by broth microdilution method; format: functional
[18] = Toxicity in human erythrocytes assessed as haemolysis upto 500 ug/mL; format: cell-based, Erythrocyte; settings: read-out: Activity
Candida albicans [19] = assay: Antifungal activity against Candida albicans ATCC 10231 after 48 to 72 hrs by broth microdilution method; format: functional

COC(=O)[C@H](Cc1c[nH]c2ccccc12)NC(=O)c1ccccn1
MFC (Candida albicans [1]): 32 µg/mL (≈ 99 µM)
MIC (Candida albicans [1]): 16 µg/mL (≈ 49.5 µM)
MFC (Candida albicans [2]): 4 µg/mL (≈ 12.4 µM)
MIC (Candida albicans [2]): 2 µg/mL (≈ 6.19 µM)
MBC (Staphylococcus aureus [3]): 4 µg/mL (≈ 12.4 µM)
MIC (Staphylococcus aureus [3]): 1 µg/mL (≈ 3.09 µM)
MBC (Staphylococcus aureus [4]): 8 µg/mL (≈ 24.7 µM)
MIC (Staphylococcus aureus [4]): 2 µg/mL (≈ 6.19 µM)
MFC (Rhodotorula glutinis): 2 µg/mL (≈ 6.19 µM)
MIC (Rhodotorula glutinis): 1 µg/mL (≈ 3.09 µM)
MFC (Cryptococcus neoformans): 2 µg/mL (≈ 6.19 µM)
MIC (Cryptococcus neoformans): 1 µg/mL (≈ 3.09 µM)
MIC (Escherichia coli): 64 µg/mL (≈ 198 µM)
MFC (Candida albicans [5]): 32 µg/mL (≈ 99 µM)
MIC (Candida albicans [5]): 8 µg/mL (≈ 24.7 µM)
MBC (Micrococcus luteus): 8 µg/mL (≈ 24.7 µM)
MIC (Micrococcus luteus): 4 µg/mL (≈ 12.4 µM)
MFC (Candida albicans [6]): 16 µg/mL (≈ 49.5 µM)
MIC (Candida albicans [6]): 4 µg/mL (≈ 12.4 µM)
hemolysis [7]: 50%
MBC (Pseudomonas aeruginosa): > 128 µg/mL
MIC (Pseudomonas aeruginosa): 32 µg/mL (≈ 99 µM)
MFC (Candida albicans [8]): 32 µg/mL (≈ 99 µM)
MIC (Candida albicans [8]): 8 µg/mL (≈ 24.7 µM)
MBC (Staphylococcus aureus [9]): 4 µg/mL (≈ 12.4 µM)
MIC (Staphylococcus aureus [9]): 1 µg/mL (≈ 3.09 µM)
MBC (Staphylococcus aureus [10]): 8 µg/mL (≈ 24.7 µM)
MIC (Staphylococcus aureus [10]): 1 µg/mL (≈ 3.09 µM)
MBC (Proteus vulgaris): > 128 µg/mL
MIC (Proteus vulgaris): 32 µg/mL (≈ 99 µM)
MFC50 (Aspergillus sp.): 64 µg/mL (≈ 198 µM)
MFC90 (Aspergillus sp.): >128 µg/mL
MIC (Aspergillus sp.; Aspergillus sp.): 33.6 µg/mL (≈ 104 µM)
MIC50 (Aspergillus sp.; Aspergillus sp.): 8 µg/mL (≈ 24.7 µM)
MIC90 (Aspergillus sp.; Aspergillus sp.): 64 µg/mL (≈ 198 µM)
MFC (Candida albicans [11]): 32 µg/mL (≈ 99 µM)
MIC (Candida albicans [11]): 8 µg/mL (≈ 24.7 µM)
hemolysis [12]: 6%
MIC (Klebsiella aerogenes): 64 µg/mL (≈ 198 µM)
MFC (Candida albicans [13]): 4 µg/mL (≈ 12.4 µM)
MIC (Candida albicans [13]): 16 µg/mL (≈ 49.5 µM)
MFC (Candida albicans [14]): 64 µg/mL (≈ 198 µM)
MIC (Candida albicans [14]): 32 µg/mL (≈ 99 µM)
MFC (Candida albicans [15]): 64 µg/mL (≈ 198 µM)
MIC (Candida albicans [15]): 32 µg/mL (≈ 99 µM)
MFC (Candida albicans [16]): 32 µg/mL (≈ 99 µM)
MIC (Candida albicans [16]): 8 µg/mL (≈ 24.7 µM)
MBC (Bacillus subtilis): 16 µg/mL (≈ 49.5 µM)
MIC (Bacillus subtilis): 4 µg/mL (≈ 12.4 µM)
MFC (Candida albicans [17]): 16 µg/mL (≈ 49.5 µM)
MIC (Candida albicans [17]): 8 µg/mL (≈ 24.7 µM)
MFC (Saccharomyces cerevisiae): 8 µg/mL (≈ 24.7 µM)
MIC (Saccharomyces cerevisiae): 4 µg/mL (≈ 12.4 µM)
hemolysis [18]: 2.52%
MFC (Candida albicans [19]): 4 µg/mL (≈ 12.4 µM)
MIC (Candida albicans [19]): 8 µg/mL (≈ 24.7 µM)

C[C@@H]1[C@H](O)[C@@H](C)/C=C/C=C/C=C/C=C/C=C/C=C/C=C/[C@H](O[C@@H]2O[C@H](C)[C@@H](O)[C@H](N)[C@@H]2O)C[C@@H]2O[C@](O)(C[C@@H](O)C[C@@H](O)[C@H](O)CC[C@@H](O)C[C@@H](O)CC(=O)O[C@H]1C)C[C@H](O)[C@H]2C(=O)O [AMPHOTERICIN B]
MFC (Candida albicans [1]): 1 µg/mL (≈ 1.08 µM)
MIC (Candida albicans [1]): 0.5 µg/mL (≈ 0.541 µM)
MFC (Candida albicans [2]): 2 µg/mL (≈ 2.16 µM)
MIC (Candida albicans [2]): 1 µg/mL (≈ 1.08 µM)
MFC (Rhodotorula glutinis): > 64 µg/mL
MIC (Rhodotorula glutinis): 16 µg/mL (≈ 17.3 µM)
MFC (Cryptococcus neoformans): 1 µg/mL (≈ 1.08 µM)
MIC (Cryptococcus neoformans): 0.25 µg/mL (≈ 0.271 µM)
MFC (Candida albicans [5]): 0.5 µg/mL (≈ 0.541 µM)
MIC (Candida albicans [5]): 0.25 µg/mL (≈ 0.271 µM)
MFC (Candida albicans [6]): 2 µg/mL (≈ 2.16 µM)
MIC (Candida albicans [6]): 2 µg/mL (≈ 2.16 µM)
MFC (Candida albicans [8]): 4 µg/mL (≈ 4.33 µM)
MIC (Candida albicans [8]): 4 µg/mL (≈ 4.33 µM)
MFC50 (Aspergillus sp.): 2 µg/mL (≈ 2.16 µM)
MFC90 (Aspergillus sp.): 8 µg/mL (≈ 8.66 µM)
MFC (Aspergillus sp.; Aspergillus sp.): 2.96 µg/mL (≈ 3.2 µM)
MIC (Aspergillus sp.; Aspergillus sp.): 1.61 µg/mL (≈ 1.74 µM)
MIC50 (Aspergillus sp.; Aspergillus sp.): 1 µg/mL (≈ 1.08 µM)
MIC90 (Aspergillus sp.; Aspergillus sp.): 4 µg/mL (≈ 4.33 µM)
MFC (Candida albicans [11]): 4 µg/mL (≈ 4.33 µM)
MIC (Candida albicans [11]): 2 µg/mL (≈ 2.16 µM)
MFC (Candida albicans [13]): 1 µg/mL (≈ 1.08 µM)
MIC (Candida albicans [13]): 0.25 µg/mL (≈ 0.271 µM)
MFC (Candida albicans [14]): 4 µg/mL (≈ 4.33 µM)
MIC (Candida albicans [14]): 1 µg/mL (≈ 1.08 µM)
MFC (Candida albicans [15]): 4 µg/mL (≈ 4.33 µM)
MIC (Candida albicans [15]): 1 µg/mL (≈ 1.08 µM)
MFC (Candida albicans [16]): 0.5 µg/mL (≈ 0.541 µM)
MIC (Candida albicans [16]): 0.25 µg/mL (≈ 0.271 µM)
MFC (Candida albicans [17]): 0.5 µg/mL (≈ 0.541 µM)
MIC (Candida albicans [17]): 0.5 µg/mL (≈ 0.541 µM)
MFC (Saccharomyces cerevisiae): 0.5 µg/mL (≈ 0.541 µM)
MIC (Saccharomyces cerevisiae): 0.25 µg/mL (≈ 0.271 µM)
MFC (Candida albicans [19]): 0.25 µg/mL (≈ 0.271 µM)
MIC (Candida albicans [19]): 0.13 µg/mL (≈ 0.141 µM)
